Data on one compound can be found in PMC5218480 (PLoS ONE, 2017).

The assay relates to MV-4-11 cells. As to the kind of experiment: Gene expression microarray analysis (Affymetrix PrimeView) and GSEA. Type of assay: cell-based, human. Conditions: ProbeSet 11731583_a_at; LIST D. Details: RFU PODN (11730768_x_at) / Fold change /veh PODN (11730768_x_at) / RFU LINC00158 (11744669_a_at) / Fold change /veh LINC00158 (11744669_a_at) / RFU DUSP10 (11751237_a_at) / Fold change /veh DUSP10 (11751237_a_at) / RFU ID3 (11757404_x_at) / Fold change /veh ID3 (11757404_x_at) / RFU PLEKHG5 (11737974_s_at) / Fold change /veh PLEKHG5 (11737974_s_at) / RFU LRRC4B (11730491_at) / Fold change /veh LRRC4B (11730491_at) / RFU GIMAP4 (11747438_a_at) / Fold change /veh GIMAP4 (11747438_a_at) / RFU KRT8 (11758183_x_at) / Fold change /veh KRT8 (11758183_x_at) / RFU CNN1 (11734310_a_at) / Fold change /veh CNN1 (11734310_a_at) / RFU VPS37D (11726825_at) / Fold change /veh VPS37D (11726825_at) / RFU C10orf10 (11716522_x_at) / Fold change /veh C10orf10 (11716522_x_at) / RFU KIR2DL2 /// KIR2DL4 /// KIR2DL5A /// KIR2DL5B /// KIR2DS1 /// KIR2DS2 /// KIR2DS3 /// KIR2DS4 /// KIR3DL3 /// KIR3DL3 /// KIR3DS1 (11738374_at) / Fold change /veh KIR2DL2 /// KIR2DL4 /// KIR2DL5A /// KIR2DL5B /// KIR2DS1 /// KIR2DS2 /// KIR2DS3 /// KIR2DS4 /// KIR3DL3 /// KIR3DL3 /// KIR3DS1 (11738374_at) / RFU C1QL1 (11718748_at) / Fold change /veh C1QL1 (11718748_at) / RFU TMPRSS4 (11747572_a_at) / Fold change /veh TMPRSS4 (11747572_a_at) / RFU HAMP (11756126_x_at) / Fold change /veh HAMP (11756126_x_at) / RFU RNFT2 (11725882_a_at) / Fold change /veh RNFT2 (11725882_a_at) / RFU NR4A2 (11747474_a_at) / Fold change /veh NR4A2 (11747474_a_at) / RFU ABCC12 (11746883_a_at) / Fold change /veh ABCC12 (11746883_a_at) / RFU TMEM136 (11760407_x_at) / Fold change /veh TMEM136 (11760407_x_at) / RFU CLDN22 /// WWC2 (11732394_at) / Fold change /veh CLDN22 /// WWC2 (11732394_at) / RFU HLA-DPB1 (11760878_x_at) / Fold change /veh HLA-DPB1 (11760878_x_at) / RFU SPINT1 (11716480_a_at) / Fold change /veh SPINT1 (11716480_a_at) / RFU GAP43 (11754022_s_at) / Fold change /veh GAP43 (11754022_s_at) / RFU A4GNT (11735810_at) / Fold change /veh A4GNT (11735810_at) / RFU PRB3 (11715151_x_at) / Fold change /veh PRB3 (11715151_x_at) / RFU TUBB4B (11761932_at) / Fold change /veh TUBB4B (11761932_at) / RFU CAPN14 (11732068_a_at) / Fold change /veh CAPN14 (11732068_a_at) / RFU TMCC2 (11721928_a_at) / Fold change /veh TMCC2 (11721928_a_at) / RFU IRGQ (11745062_a_at) / Fold change /veh IRGQ (11745062_a_at) / RFU FAM174B (11720279_a_at) / Fold change /veh FAM174B (11720279_a_at) / RFU TMPRSS4 (11748680_a_at) / Fold change /veh TMPRSS4 (11748680_a_at) / RFU FAM212B (11763350_a_at) / Fold change /veh FAM212B (11763350_a_at) / RFU PLEKHG5 (11743358_a_at) / Fold change /veh PLEKHG5 (11743358_a_at) / RFU ZSCAN30 (11745921_a_at) / Fold change /veh ZSCAN30 (11745921_a_at) / RFU CMKLR1 (11741424_a_at) / Fold change /veh CMKLR1 (11741424_a_at) / RFU LOC101060620 /// MAPK8IP1 (11723275_at) / Fold change /veh LOC101060620 /// MAPK8IP1 (11723275_at) / RFU SPTSSB (11747773_x_at) / Fold change /veh SPTSSB (11747773_x_at) / RFU PRSS12 (11739890_at) / Fold change /veh PRSS12 (11739890_at) / RFU BIN1 (11741810_x_at) / Fold change /veh BIN1 (11741810_x_at) / RFU WNT11 (11732464_a_at) / Fold change /veh WNT11 (11732464_a_at) / RFU C10orf10 (11716521_a_at) / Fold change /veh C10orf10 (11716521_a_at) / RFU C5orf56 (11738089_at) / Fold change /veh C5orf56 (11738089_at) / RFU CYB561 (11721691_x_at) / Fold change /veh CYB561 (11721691_x_at) / RFU ANKRD19P (11752326_a_at) / Fold change /veh ANKRD19P (11752326_a_at) / RFU OR2T12 /// OR2T33 /// OR2T8 (11738714_s_at) / Fold change /veh OR2T12 /// OR2T33 /// OR2T8 (11738714_s_at) / RFU VCAN (11748164_a_at) / Fold change /veh VCAN (11748164_a_at) / RFU JSRP1 (11732532_at) / Fold change /veh JSRP1 (11732532_at) / RFU KRTAP10-11 (11738290_x_at) / Fold change /veh KRTAP10-11 (11738290_x_at) / RFU MYO3A (11730013_a_at) / Fold change /veh MYO3A (11730013_a_at) / RFU EBF3 (11725865_a_at) / Fold change /veh EBF3 (11725865_a_at) / RFU CAMK2N1 (11719241_x_at) / Fold change /veh CAMK2N1 (11719241_x_at) / RFU C5orf56 (11738088_a_at) / Fold change /veh C5orf56 (11738088_a_at) / RFU OLFML3 (11715873_a_at) / Fold change /veh OLFML3 (11715873_a_at) / RFU LOC100653217 /// NTM (11731650_a_at) / Fold change /veh LOC100653217 /// NTM (11731650_a_at) / RFU MAPK11 (11762145_a_at) / Fold change /veh MAPK11 (11762145_a_at) / RFU FIZ1 (11724087_x_at) / Fold change /veh FIZ1 (11724087_x_at) / RFU OASL (11726364_x_at) / Fold change /veh OASL (11726364_x_at) / RFU SOX15 (11748057_x_at) / Fold change /veh SOX15 (11748057_x_at) / RFU CD79A (11719716_a_at) / Fold change /veh CD79A (11719716_a_at) / RFU HIST1H1D (11736915_at) / Fold change /veh HIST1H1D (11736915_at) / RFU CASKIN2 (11723855_a_at) / Fold change /veh CASKIN2 (11723855_a_at) / RFU LOC730098 (11760151_x_at) / Fold change /veh LOC730098 (11760151_x_at) / RFU OR4N2 (11742367_at) / Fold change /veh OR4N2 (11742367_at) / RFU PRRT2 (11749266_a_at) / Fold change /veh PRRT2 (11749266_a_at) / RFU SNX32 (11753110_a_at) / Fold change /veh SNX32 (11753110_a_at) / RFU CDHR5 (11726645_a_at) / Fold change /veh CDHR5 (11726645_a_at) / RFU RCAN1 (11760418_a_at) / Fold change /veh RCAN1 (11760418_a_at) / RFU FAM167A (11723789_a_at) / Fold change /veh FAM167A (11723789_a_at) / RFU FAM26E (11764081_at) / Fold change /veh FAM26E (11764081_at) / RFU ISYNA1 (11749810_s_at) / Fold change /veh ISYNA1 (11749810_s_at) / RFU ACY1 (11761880_at) / Fold change /veh ACY1 (11761880_at) / RFU 11764098_at / Fold change /veh 11764098_at / RFU SAMD14 (11745864_x_at) / Fold change /veh SAMD14 (11745864_x_at) / RFU NPB (11741838_a_at) / Fold change /veh NPB (11741838_a_at) / RFU TMPRSS6 (11731388_a_at) / Fold change /veh TMPRSS6 (11731388_a_at) / RFU KRTAP10-2 (11738614_at) / Fold change /veh KRTAP10-2 (11738614_at) / RFU ARHGAP8 /// PRR5-ARHGAP8 (11727945_x_at) / Fold change /veh ARHGAP8 /// PRR5-ARHGAP8 (11727945_x_at) / RFU KRTAP5-7 /// NADSYN1 (11734609_at) / Fold change /veh KRTAP5-7 /// NADSYN1 (11734609_at) / RFU RASL12 (11751679_a_at) / Fold change /veh RASL12 (11751679_a_at) / RFU CDKN2B (11736163_a_at) / Fold change /veh CDKN2B (11736163_a_at) / RFU PRF1 (11729649_at) / Fold change /veh PRF1 (11729649_at) / RFU, ZNF638 /// ZNF638-IT1 / Fold change vs veh, ZNF638 /// ZNF638-IT1 / RFU, PANK3 / Fold change vs veh, PANK3 / RFU, SH3YL1 / Fold change vs veh, SH3YL1 / RFU, ZEB2 / Fold change vs veh, ZEB2 / RFU, NRIP1 / Fold change vs veh, NRIP1 / RFU, PTTG1IP / Fold change vs veh, PTTG1IP / RFU, CAPN2 / Fold change vs veh, CAPN2 / RFU, MED14 / Fold change vs veh, MED14 / RFU, SNORA58 / Fold change vs veh, SNORA58 / RFU, C1orf63 / Fold change vs veh, C1orf63 / RFU, LRRFIP1 / Fold change vs veh, LRRFIP1 / RFU, NDUFAF7 / Fold change vs veh, NDUFAF7 / RFU, SLC12A2 / Fold change vs veh, SLC12A2 / RFU, IBTK / Fold change vs veh, IBTK / RFU, ESF1 / Fold change vs veh, ESF1 / Fold change vs veh, TMEM50B / RFU, TAOK1 / Fold change vs veh, TAOK1 / RFU, ACBD3 / Fold change vs veh, ACBD3 / RFU, TMA16 / Fold change vs veh, TMA16 / RFU, RWDD3 / Fold change vs veh, RWDD3 / RFU, BCAT1 / Fold change vs veh, BCAT1 / RFU, EDEM3 / Fold change vs veh, EDEM3 / RFU, TMEM33 / Fold change vs veh, TMEM33 / RFU, WDR75 / Fold change vs veh, WDR75 / RFU, AHCTF1 / Fold change vs veh, AHCTF1 / RFU, TFRC / Fold change vs veh, TFRC / RFU, ZDHHC17 / Fold change vs veh, ZDHHC17 / RFU, NOM1 / Fold change vs veh, NOM1 / RFU, ARL8B / Fold change vs veh, ARL8B / RFU, ZBTB11 / Fold change vs veh, ZBTB11 / RFU, TAMM41 / Fold change vs veh, TAMM41 / RFU, KIAA1704 /// LOC100996395 / Fold change vs veh, KIAA1704 /// LOC100996395 / RFU, ING1 / Fold change vs veh, ING1 / RFU, TRMT61B / Fold change vs veh, TRMT61B / RFU, FUBP3 / Fold change vs veh, FUBP3 / RFU, TP53 / Fold change vs veh, TP53 / RFU, TNKS2 / Fold change vs veh, TNKS2 / RFU, ZFP14 / Fold change vs veh, ZFP14 / RFU, ACTR2 / Fold change vs veh, ACTR2 / RFU, PPP3R1 / Fold change vs veh, PPP3R1 / RFU, PIK3R1 / Fold change vs veh, PIK3R1 / RFU, HNRNPA1 / Fold change vs veh, HNRNPA1 / RFU, RNF170 / Fold change vs veh, RNF170 / RFU, ZNF28 / Fold change vs veh, ZNF28 / RFU, RNGTT / Fold change vs veh, RNGTT / RFU, OGT / Fold change vs veh, OGT / RFU, BRD1 / Fold change vs veh, BRD1 / RFU, MARS / Fold change vs veh, MARS / RFU, ZNF655 / Fold change vs veh, ZNF655 / RFU, FAHD1 / Fold change vs veh, FAHD1 / RFU, BDP1 / Fold change vs veh, BDP1 / RFU, LRRCC1 / Fold change vs veh, LRRCC1 / RFU, ARID1A / Fold change vs veh, ARID1A / RFU, ZNF146 / Fold change vs veh, ZNF146 / RFU, ZNF330 / Fold change vs veh, ZNF330 / RFU, GPN3 / Fold change vs veh, GPN3 / RFU, C9orf123 / Fold change vs veh, C9orf123 / RFU, N4BP2L2 / Fold change vs veh, N4BP2L2 / RFU, ARFIP1 / Fold change vs veh, ARFIP1 / RFU, FAM179B / Fold change vs veh, FAM179B / RFU, BCL10 / Fold change vs veh, BCL10 / RFU, UHRF1BP1L / Fold change vs veh, UHRF1BP1L / RFU, BET1 / Fold change vs veh, BET1 / RFU, CNOT2 / Fold change vs veh, CNOT2 / RFU, ZNF268 / Fold change vs veh, ZNF268 / Fold change vs veh, ZNF507 / RFU, DGCR2 / Fold change vs veh, DGCR2 / RFU, WDSUB1 / Fold change vs veh, WDSUB1 / Fold change vs veh, HSP90B1 /// MIR3652 / RFU, ADSS / Fold change vs veh, ADSS / RFU, GK / Fold change vs veh, GK / RFU, ZNF148 / Fold change vs veh, ZNF148 / RFU, TAF9 / Fold change vs veh, TAF9 / RFU, SLC1A5 / Fold change vs veh, SLC1A5 / RFU, SLMO2 / Fold change vs veh, SLMO2 / RFU, ABCC4 / Fold change vs veh, ABCC4 / RFU, LOC101060439 /// RAP1B / Fold change vs veh, LOC101060439 /// RAP1B / RFU, RFX7 / Fold change vs veh, RFX7 / RFU, GTPBP10 / Fold change vs veh, GTPBP10 / RFU, CNEP1R1 / Fold change vs veh, CNEP1R1 / RFU, BIVM-ERCC5 /// ERCC5 / Fold change vs veh, BIVM-ERCC5 /// ERCC5 / RFU, ILF3 / Fold change vs veh, ILF3 / RFU 11762660_at / Fold change /veh 11762660_at / RFU VCAN (11757783_s_at) / Fold change /veh VCAN (11757783_s_at) / RFU DDX43 (11728927_at) / Fold change /veh DDX43 (11728927_at) / RFU KRT8 (11758188_x_at) / Fold change /veh KRT8 (11758188_x_at) / RFU NKD1 (11759106_at) / Fold change /veh NKD1 (11759106_at) / RFU SRD5A1 (11742802_a_at) / Fold change /veh SRD5A1 (11742802_a_at) / RFU TPSAB1 /// TPSB2 (11721975_s_at) / Fold change /veh TPSAB1 /// TPSB2 (11721975_s_at) / RFU GSTM3 (11746129_a_at) / Fold change /veh GSTM3 (11746129_a_at) / RFU IL23R (11737362_x_at) / Fold change /veh IL23R (11737362_x_at) / RFU TMEM51 (11727254_a_at) / Fold change /veh TMEM51 (11727254_a_at) / RFU PIWIL2 (11732686_x_at) / Fold change /veh PIWIL2 (11732686_x_at) / RFU ORM1 (11744905_x_at) / Fold change /veh ORM1 (11744905_x_at) / RFU CCDC152 (11743942_at) / Fold change /veh CCDC152 (11743942_at) / RFU ECM1 (11717891_a_at) / Fold change /veh ECM1 (11717891_a_at) / RFU IL23R (11748794_a_at) / Fold change /veh IL23R (11748794_a_at) / RFU TNFAIP8L3 (11732012_x_at) / Fold change /veh TNFAIP8L3 (11732012_x_at) / RFU MBOAT4 (11741988_at) / Fold change /veh MBOAT4 (11741988_at) / RFU 11764193_at / Fold change /veh 11764193_at / RFU TMEM53 (11763286_at) / Fold change /veh TMEM53 (11763286_at) / RFU MAGEB2 (11727129_at) / Fold change /veh MAGEB2 (11727129_at) / RFU TMEM200A (11744735_a_at) / Fold change /veh TMEM200A (11744735_a_at) / RFU CCDC152 (11751479_a_at) / Fold change /veh CCDC152 (11751479_a_at) / RFU FAM211A (11726209_a_at) / Fold change /veh FAM211A (11726209_a_at) / RFU RGS16 (11746705_a_at) / Fold change /veh RGS16 (11746705_a_at) / RFU VCAN (11755009_s_at) / Fold change /veh VCAN (11755009_s_at) / RFU RHOB (11743442_s_at) / Fold change /veh RHOB (11743442_s_at) / RFU RGS16 (11720943_a_at) / Fold change /veh RGS16 (11720943_a_at) / RFU RGS16 (11720944_at) / Fold change /veh RGS16 (11720944_at) / RFU, VPS4B / Fold change vs veh, VPS4B / RFU, CREB1 / Fold change vs veh, CREB1 / RFU, DNAJC13 / Fold change vs veh, DNAJC13 / RFU, GNAQ / Fold change vs veh, GNAQ / RFU, CDK5R1 / Fold change vs veh, CDK5R1 / RFU, ZRANB3 / Fold change vs veh, ZRANB3 / RFU, CUL4A / Fold change vs veh, CUL4A / RFU, CCNY / Fold change vs veh, CCNY / RFU, UFL1 / Fold change vs veh, UFL1 / RFU, COG3 / Fold change vs veh, COG3 / RFU, DIAPH2 / Fold change vs veh, DIAPH2 / RFU, SKA2 / Fold change vs veh, SKA2 / RFU, AFF3 / Fold change vs veh, AFF3 / RFU, LMF1 / Fold change vs veh, LMF1 / RFU, IPO11 / Fold change vs veh, IPO11 / RFU, DFFB / Fold change vs veh, DFFB / RFU, FOXP1 / Fold change vs veh, FOXP1 / RFU, CARD8 / Fold change vs veh, CARD8 / RFU, STRN3 / Fold change vs veh, STRN3 / RFU, ADK / Fold change vs veh, ADK / RFU, RASSF2 / Fold change vs veh, RASSF2 / RFU, WIPF1 / Fold change vs veh, WIPF1 / RFU, LARP1B / Fold change vs veh, LARP1B / RFU, RASA1 / Fold change vs veh, RASA1 / RFU, RB1 / Fold change vs veh, RB1 / RFU, PPFIA1 / Fold change vs veh, PPFIA1 / RFU, MAT2A / Fold change vs veh, MAT2A / RFU, CCT5 / Fold change vs veh, CCT5 / RFU, WDR92 / Fold change vs veh, WDR92 / RFU, CUX1 / Fold change vs veh, CUX1 / RFU, TTC7A / Fold change vs veh, TTC7A / RFU, TMEM135 / Fold change vs veh, TMEM135 / RFU, DEPTOR / Fold change vs veh, DEPTOR / RFU, CPM / Fold change vs veh, CPM / RFU, DNAJB6 / Fold change vs veh, DNAJB6 / RFU, CACNA2D3 / Fold change vs veh, CACNA2D3 / RFU, DTX4 / Fold change vs veh, DTX4 / RFU, TFCP2 / Fold change vs veh, TFCP2 / RFU, GMCL1 /// GMCL1P1 / Fold change vs veh, GMCL1 /// GMCL1P1 / RFU, AEBP2 / Fold change vs veh, AEBP2 / RFU, SNHG1 /// SNORD22 /// SNORD25 /// SNORD26 /// SNORD27 /// SNORD28 /// SNORD29 /// SNORD31 / Fold change vs veh, SNHG1 /// SNORD22 /// SNORD25 /// SNORD26 /// SNORD27 /// SNORD28 /// SNORD29 /// SNORD31 / Fold change (Aza/veh), C12orf56 (ProbeSet 11735607_a_at) / Fold change (ACY-1035/veh), C12orf56 (ProbeSet 11735607_a_at) / Fold change (Aza/veh), FGFR1OP (ProbeSet 11751329_s_at) / Fold change (ACY-1035/veh), FGFR1OP (ProbeSet 11751329_s_at) / Fold change (Aza/veh), VPS36 (ProbeSet 11739960_a_at) / Fold change (ACY-1035/veh), VPS36 (ProbeSet 11739960_a_at) / RFU SYPL1 (11715823_x_at) / Fold change /veh SYPL1 (11715823_x_at) / RFU IGFBP7 (11715501_s_at) / Fold change /veh IGFBP7 (11715501_s_at) / RFU REEP3 (11722064_at) / Fold change /veh REEP3 (11722064_at) / RFU IGLL1 (11728026_x_at) / Fold change /veh IGLL1 (11728026_x_at): dose or concentration left out as unconfirmed.

SMILES strings stand for the structures.

As for `Nc1ncn([C@@H]2O[C@H](CO)[C@@H](O)[C@H]2O)c(=O)n1` [azacitidine], the “Fold change vs veh, LARP1B” value came out at 0.75.
